In the supplement of paper PMC10307832:

Experiments:
Experiment in all cases: relative viability (nuclei count vs DMSO), 5 days (fraction); higher = more cells survive
[1] = compound: CC1=CC=C(C=C1)C(=O)CN2C3=C(CCCC3)SC2=N [Pifithrin_alpha] + CS(=O)(=O)CCNCc1ccc(-c2ccc3ncnc(Nc4ccc(OCc5cccc(F)c5)c(Cl)c4)c3c2)o1 [Lapatinib] (partner 2 µM)
In short: (§1)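 Dosing by pin tool came one day after lung cancer cell lines were seeded in 1536-well plates, using either one drug or a fixed anchor-drug dose plus five library-drug doses (not always all listed) in √10 steps. After 5 days, nuclei were counted on 4× images. Relative viability is treated-well nuclei count divided by vehicle-well nuclei count, and values are medians of duplicate plates.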

[2] = compound: CC1=CC=C(C=C1)C(=O)CN2C3=C(CCCC3)SC2=N [Pifithrin_alpha] + COc1cc2c(Oc3ccc(NC(=O)C4(C(=O)Nc5ccc(F)cc5)CC4)cc3F)ccnc2cc1OCCCN1CCOCC1 [Foretinib] (partner 0.25 µM)
In short: as §1

Axitinib + Decitabine = compound: CNC(=O)c1ccccc1Sc1ccc2c(/C=C/c3ccccn3)n[nH]c2c1 [Axitinib] + Nc1ncn([C@H]2C[C@H](O)[C@@H](CO)O2)c(=O)n1 [Decitabine] (partner 2 µM)
In short: as §1

Axitinib + Tozasertib = compound: CNC(=O)c1ccccc1Sc1ccc2c(/C=C/c3ccccn3)n[nH]c2c1 [Axitinib] + Cc1cc(Nc2cc(N3CCN(C)CC3)nc(Sc3ccc(NC(=O)C4CC4)cc3)n2)n[nH]1 [Tozasertib] (partner 0.1 µM)
In short: as §1

Cell Line	relative viability ([1]; first compound 1 µM)	relative viability ([1]; first compound 3.162 µM)	relative viability ([1]; first compound 10 µM)	relative viability ([1]; first compound 31.62 µM)	relative viability ([1]; first compound 100 µM)	relative viability ([2]; first compound 1 µM)	relative viability ([2]; first compound 3.162 µM)	relative viability ([2]; first compound 10 µM)	relative viability ([2]; first compound 31.62 µM)	relative viability ([2]; first compound 100 µM)	relative viability (Axitinib + Decitabine; first compound 0.005 µM)	relative viability (Axitinib + Decitabine; first compound 0.01581 µM)	relative viability (Axitinib + Decitabine; first compound 0.05 µM)	relative viability (Axitinib + Decitabine; first compound 0.1581 µM)	relative viability (Axitinib + Decitabine; first compound 0.5 µM)	relative viability (Axitinib + Tozasertib; first compound 0.005 µM)	relative viability (Axitinib + Tozasertib; first compound 0.01581 µM)	relative viability (Axitinib + Tozasertib; first compound 0.05 µM)	relative viability (Axitinib + Tozasertib; first compound 0.1581 µM)	relative viability (Axitinib + Tozasertib; first compound 0.5 µM)
201T	0.959	0.728	0.744	0.83	0.689	0.928	0.745	0.684	0.627	0.681	0.866	0.803	0.851	0.872	0.878	1	0.896	0.907	0.929	1.19
A549	1.12	1	0.838	0.766	0.739	1.1	0.958	1.1	0.874	0.959	0.324	0.296	0.338	0.243	0.324					
A-427	0.981	0.877	0.99	0.845	1.18	0.877	1.02	1.08	0.863	1.01	0.58	0.602	0.553	0.57	0.589	0.206	0.193	0.228	0.266	0.22
ABC-1	1.36	1.24	0.923		1.36	1.16	1.11	1.03	0.942	0.724	1.35		0.866	0.964	1.01	0.19	0.226	0.14	0.179	0.183
BEN	0.522	0.769	0.686	0.733	0.873	0.357	0.736	0.697	0.508	0.625	0.795	0.758	0.771	0.782	0.635	0.495	0.574	0.582	0.513	0.466
CAL-12T	0.624	0.614	0.696	0.441	0.447	0.923	1.18	1.06		0.898						0.417	0.363	0.34	0.365	0.394
COR-L23	1.05	1.28	1.06		0.926	0.955	0.987	0.97		0.928	0.504	0.454	0.419	0.511	0.397	0.212	0.205	0.24	0.244	0.278
COR-L 105	0.343	0.395	0.336	0.321	0.533	1.08	0.976	1.13	0.897	0.734	0.727	0.557	0.726	0.727	0.683	0.356	0.422	0.331	0.438	0.364
Calu-6	1.02	1.03	0.986	0.675	1.07	0.952	0.883	0.76	0.636	0.706										
ChaGo-K-1						0.917	0.985	0.871	0.828	0.814	0.557	0.527	0.506	0.52	0.495	0.217	0.205	0.212	0.237	0.255
EBC-1	0.21	0.225	0.192	0.213	0.165	0.0836	0.0947	0.0856	0.0979	0.0988										
EKVX	0.167	0.16	0.139	0.181	0.14	0.744		0.736	0.731	0.636	0.366	0.315	0.344	0.334	0.396	0.41	0.492	0.358	0.347	0.341
EMC-BAC-2	0.87	0.905	0.864	0.623	0.928	0.912	0.932	0.968		0.818	1.03	0.966	0.971	0.965	0.945	0.301	0.299	0.272	0.391	0.412
EPLC-272H		0.8	1.05	0.629	0.739	0.601	0.66	0.632	0.424	0.695	0.411	0.345	0.338	0.351	0.377	0.247	0.223	0.204	0.23	0.242
H3255	0.13	0.208	0.267	0.244	0.192	0.716	0.949	0.827	0.777	0.92	0.736		0.559	0.508	0.535	0.721	0.642	0.589	0.541	1.2
HARA	0.675	0.625	0.759	0.589	0.478		1.08	0.978		0.656	0.575	0.396	0.484	0.548	0.581	0.125	0.0963	0.0847	0.106	0.123
HCC-15	0.636	1.05	0.734	0.666	0.845	1.08	1.05	0.93	0.731	0.789	0.637	0.635	0.681	0.615	0.603	0.461	0.564	0.435	0.49	0.605
HCC-44	0.932	0.965	0.791	0.641	0.763						0.974	0.919	0.937	0.956	0.872	1.07	1.14	0.702	1.02	1.19
